The assay addresses Envelope glycoprotein gp160 (Human immunodeficiency virus 1, UniProt Q6QLK5). Description: inhibitors of HIV fusion peptide binding, primary screen, biochemical, uHTS, fluorescence dequenching (AID 1986).

Calls of active or inactive are those of the source. Cut-off read from the data, not from the text of the source: actives have a measured IC50 and inactives only a lower limit.

Chain of Envelope glycoprotein gp160 (Q6QLK5 whole entry, the tested form may be a part): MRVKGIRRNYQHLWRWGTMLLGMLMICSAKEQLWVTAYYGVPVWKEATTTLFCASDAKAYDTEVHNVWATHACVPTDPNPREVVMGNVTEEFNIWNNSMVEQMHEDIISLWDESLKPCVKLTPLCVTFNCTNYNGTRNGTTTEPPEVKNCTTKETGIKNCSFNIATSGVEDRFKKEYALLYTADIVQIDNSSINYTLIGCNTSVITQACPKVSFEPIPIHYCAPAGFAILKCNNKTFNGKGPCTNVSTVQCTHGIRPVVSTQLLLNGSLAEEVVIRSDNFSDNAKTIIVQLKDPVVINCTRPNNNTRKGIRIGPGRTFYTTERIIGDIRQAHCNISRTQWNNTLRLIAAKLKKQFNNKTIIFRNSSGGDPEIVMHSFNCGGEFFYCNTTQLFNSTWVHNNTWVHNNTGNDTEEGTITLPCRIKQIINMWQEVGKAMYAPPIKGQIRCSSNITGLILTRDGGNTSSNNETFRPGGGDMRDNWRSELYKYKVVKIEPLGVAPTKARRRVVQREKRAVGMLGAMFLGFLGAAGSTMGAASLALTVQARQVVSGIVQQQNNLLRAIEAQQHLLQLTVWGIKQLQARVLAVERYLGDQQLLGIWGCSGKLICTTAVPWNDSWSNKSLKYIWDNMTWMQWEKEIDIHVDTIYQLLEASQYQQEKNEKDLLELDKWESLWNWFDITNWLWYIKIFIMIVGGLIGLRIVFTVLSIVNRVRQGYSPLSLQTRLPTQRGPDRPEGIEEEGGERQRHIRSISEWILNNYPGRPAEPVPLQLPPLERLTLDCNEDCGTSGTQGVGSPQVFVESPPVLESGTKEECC

In general, IC50 refers to the concentration needed to halve the response being measured. As for `O=C(O)CSc1nc(-c2ccc(Cl)cc2)nc2c1oc1ccccc12`, the IC50 is 15.4 µM (active).
For the compound `COc1cccc(-c2nc(SCC(=O)Nc3nc(-c4ccccc4)c(C)s3)[nH]c(=O)c2C#N)c1`, the IC50 is 10.3 µM (active).

(Values after ChEMBL document CHEMBL1201862, “PubChem BioAssay data set” (2004).)
